Test results reported in EP2380575B1, “Eslicarbazepine acetate and use” (Bial-Portela & CA, S.A., priority 2005, dated 2006).
Read-outs that look alike come from different tables or passages of the source.

Assays:
[1] = Trial B: pharmacokinetics following single and repeated doses in healthy young male subjects; format: in vivo, humans; details: for AUC(0-t) / half-life / Cmax / Tmax: male, human, oral; for AUC(0-t): read-out: Mean AUC0-24h (%CV); for half-life: read-out: Mean apparent t½ (%CV) (converted); for Cmax: read-out: Mean Cmax (%CV)
Method: The study integrated the results of three double-blind, randomized, placebo-controlled trials. To measure the pharmacokinetics of eslicarbazepine acetate following single doses, oral single doses of eslicarbazepine acetate ranging from 20 mg to 2400 mg were administered to healthy young male subjects (6 subjects per dose). The pharmacokinetics of eslicarbazepine acetate following repeated doses were measured by administering repeated oral doses ranging from 400 mg to 2400 mg of eslicarbazepine acetate to healthy young male subjects (6 subjects per dose) over a period of 8 days. Analytical test methods and experimental procedures were similar to those described for Trial A above.

[2] = clinical; details: both, human, plasma, po, 900 mg
[3] = for share of total systemic drug exposure (as assessed by AUC0-24): 8 days multiple administration
[4] = in vivo, 50 mg, single dose 50 mg eslicarbazepine acetate, n=6
[5] = in vivo, 100 mg, single dose 100 mg eslicarbazepine acetate, n=6
[6] = in vivo, 200 mg, single dose 200 mg eslicarbazepine acetate, n=6
[7] = in vivo, 400 mg, last dose of 8-day repeated 400 mg o.d. eslicarbazepine acetate, n=6
[8] = in vivo, 400 mg, single dose 400 mg eslicarbazepine acetate, n=6
[9] = in vivo, 600 mg, single dose 600 mg eslicarbazepine acetate, n=6
[10] = in vivo, 800 mg, last dose of 8-day repeated 800 mg o.d. eslicarbazepine acetate, n=6
[11] = in vivo, 900 mg, single dose 900 mg eslicarbazepine acetate, n=6
[12] = in vivo, 1200 mg, last dose of 8-day repeated 1200 mg o.d. eslicarbazepine acetate, n=6
[13] = in vivo, 1200 mg, single dose 1200 mg eslicarbazepine acetate, n=6
[14] = in vivo, 1800 mg, last dose of 8-day repeated 1800 mg o.d. eslicarbazepine acetate, n=6
[15] = in vivo, 2400 mg, last dose of 8-day repeated 2400 mg o.d. eslicarbazepine acetate, n=6
[16] = plasma, 20 mg, single dose 20 mg eslicarbazepine acetate, n=6
[17] = plasma, 1800 mg, single dose 1800 mg eslicarbazepine acetate, n=6
[18] = plasma, 2400 mg, single dose 2400 mg eslicarbazepine acetate, n=6
[19] = multiple oral dose of 900 mg eslicarbazepine acetate once-daily, last dose, arithmetic mean
[20] = multiple oral dose of 900 mg eslicarbazepine acetate twice-daily (as titled), last dose, arithmetic mean
[21] = multiple oral dose of 900 mg eslicarbazepine acetate twice-daily (as titled), last dose, arithmetic mean, listed as Eslicarbazepine

mean AUC0-24h ([1]; 400 mg once-daily doses of eslicarbazepine acetate): 126 µg·h/mL | mean AUC0-24h ([1]; 2400 mg once-daily doses of eslicarbazepine acetate): 906 µg·h/mL | Median tmax (range) ([1]; last dose of 8-day repeated 400 mg o.d. eslicarbazepine acetate, n=6): 3 (0.5-7) h | Median tmax (range) ([1]; last dose of 8-day repeated 800 mg o.d. eslicarbazepine acetate, n=6): 3.5 (1-7) h | Median tmax (range) ([1]; last dose of 8-day repeated 1200 mg o.d. eslicarbazepine acetate, n=6): 3 (0.5-6) h | Median tmax (range) ([1]; last dose of 8-day repeated 1800 mg o.d. eslicarbazepine acetate, n=6): 2 (0.5-4) h | Median tmax (range) ([1]; last dose of 8-day repeated 2400 mg o.d. eslicarbazepine acetate, n=6): 2 (1.5-8) h | mean Cmax ([1]; last dose, repeated once daily 400 mg doses of eslicarbazepine acetate): 8,800 ng/ML | mean Cmax ([1]; last dose, repeated once daily 2400 mg doses of eslicarbazepine acetate): 56,500 ng/ML | AUC(0-t) [1, 4]: 6.7 µg·h/mL | half-life [1, 4]: 8.1 h | AUC(0-t) [1, 5]: 16.4 µg·h/mL | Cmax [1, 5]: 1500 ng/mL | half-life [1, 5]: 9.3 h | AUC(0-t) [1, 6]: 30.5 µg·h/mL | Cmax [1, 6]: 2900 ng/mL | half-life [1, 6]: 8.4 h | AUC(0-t) [1, 7]: 126 µg·h/mL | Cmax [1, 7]: 8800 ng/mL | half-life [1, 7]: 9.5 h | AUC(0-t) [1, 8]: 81.5 µg·h/mL | Cmax [1, 8]: 5200 ng/mL | half-life [1, 8]: 11.7 h | AUC(0-t) [1, 9]: 120 µg·h/mL | Cmax [1, 9]: 8500 ng/mL | half-life [1, 9]: 12.3 h | AUC(0-t) [1, 10]: 268 µg·h/mL | Cmax [1, 10]: 18700 ng/mL | half-life [1, 10]: 12.3 h | AUC(0-t) [1, 11]: 210 µg·h/mL | Cmax [1, 11]: 15000 ng/mL | half-life [1, 11]: 16.3 h | AUC(0-t) [1, 12]: 423 µg·h/mL | Cmax [1, 12]: 25500 ng/mL | half-life [1, 12]: 13.1 h | AUC(0-t) [1, 13]: 286 µg·h/mL | Cmax [1, 13]: 18600 ng/mL | half-life [1, 13]: 16.5 h | AUC(0-t) [1, 14]: 740 µg·h/mL | Cmax [1, 14]: 47700 ng/mL | half-life [1, 14]: 11.3 h | AUC(0-t) [1, 15]: 906 µg·h/mL | Cmax [1, 15]: 56500 ng/mL | half-life [1, 15]: 10.4 h | Tmax ([1]; in vivo, single dose 50 mg eslicarbazepine acetate, n=6, read-out: Median tmax (range)): 0.8 h | Tmax ([1]; in vivo, single dose 100 mg eslicarbazepine acetate, n=6, read-out: Median tmax (range)): 1.5 h | Tmax ([1]; in vivo, single dose 200 mg eslicarbazepine acetate, n=6, read-out: Median tmax (range)): 1.5 h | Tmax ([1]; in vivo, single dose 400 mg eslicarbazepine acetate, n=6, read-out: Median tmax (range)): 4 h | Tmax ([1]; in vivo, single dose 600 mg eslicarbazepine acetate, n=6, read-out: Median tmax (range)): 4 h | Tmax ([1]; in vivo, single dose 900 mg eslicarbazepine acetate, n=6, read-out: Median tmax (range)): 2.3 h | Tmax ([1]; in vivo, single dose 1200 mg eslicarbazepine acetate, n=6, read-out: Median tmax (range)): 4 h | AUC(0-t) [1, 16]: 2.4 µg·h/mL | Cmax [1, 16]: 300 ng/mL | half-life [1, 16]: 9.1 h | Cmax ([1]; plasma, 50 mg, single dose 50 mg eslicarbazepine acetate, n=6): 900 ng/mL | AUC(0-t) [1, 17]: 508 µg·h/mL | Cmax [1, 17]: 34600 ng/mL | half-life [1, 17]: 11.8 h | AUC(0-t) [1, 18]: 0.446 µg·h/mL | Cmax [1, 18]: 35900 ng/mL | half-life [1, 18]: 11.1 h | Tmax ([1]; plasma, last dose, repeated once daily, all dosages, read-out: median tmax): 2 to 3.5 h | Tmax ([1]; plasma, single dose 20 mg eslicarbazepine acetate, n=6, read-out: Median tmax (range)): 0.8 h | Tmax ([1]; plasma, single dose 1800 mg eslicarbazepine acetate, n=6, read-out: Median tmax (range)): 3.5 h | Tmax ([1]; plasma, single dose 2400 mg eslicarbazepine acetate, n=6, read-out: Median tmax (range)): 3 h | AUC(0-inf) [2]: 389 µg·h/mL | AUC(0-t) [2]: 382 µg·h/mL | Cmax [2]: 22200 ng/mL | Tmax [2]: 2.45 h | half-life [2]: 9.12 h | total exposure in the once-daily group higher than in the twice-daily group ([3]; healthy volunteers, 900 mg daily): at least 26% | Tmax ([3]; multiple oral dose of 900 mg eslicarbazepine acetate once-daily, last dose): 2.45 h | AUC(0-t) [3, 19]: 381601 ng·h/mL | Cmax [3, 19]: 22210 ng/mL | AUC0-τ ([3]; multiple oral dose of 900 mg eslicarbazepine acetate once-daily, last dose, dosing interval 24 hours): 294.019 µg·h/mL | Tmax ([3]; multiple oral dose of 900 mg eslicarbazepine acetate twice-daily (as titled), last dose): 2.09 h | AUC0-∞ [3, 20]: 289.792 µg·h/mL | AUC(0-t) [3, 20]: 283,014 ng·h/mL | Cmax [3, 20]: 16,667 ng/mL | t1/2 [3, 20]: 9.17 h | AUC(0-t) [3, 21]: 283014 ng·h/mL | Cmax [3, 21]: 16667 ng/mL | AUC0-τ ([3]; multiple oral dose of 900 mg eslicarbazepine acetate twice-daily (as titled), last dose, dosing interval 12 hours): 142.08 µg·h/mL | share of total systemic drug exposure (as assessed by AUC0-24) ([3]; once-daily subjects): approximately 95% | share of total systemic drug exposure (as assessed by AUC0-24) ([3]; twice-daily subjects): ~96%
Compound: NC(=O)N1c2ccccc2C[C@H](O)c2ccccc21 [eslicarbazepine]
